# According to patent US20040122026A1, “Imidazolidine compounds” (Millennium Pharmaceuticals, Inc., priority 2002, published 2004):
# Target: T1, CXCR3 (Homo sapiens, UniProt P49682)
# T1 construct: expressed in transfected cells; membrane preparation
# T1 sequence (P49682 1-368): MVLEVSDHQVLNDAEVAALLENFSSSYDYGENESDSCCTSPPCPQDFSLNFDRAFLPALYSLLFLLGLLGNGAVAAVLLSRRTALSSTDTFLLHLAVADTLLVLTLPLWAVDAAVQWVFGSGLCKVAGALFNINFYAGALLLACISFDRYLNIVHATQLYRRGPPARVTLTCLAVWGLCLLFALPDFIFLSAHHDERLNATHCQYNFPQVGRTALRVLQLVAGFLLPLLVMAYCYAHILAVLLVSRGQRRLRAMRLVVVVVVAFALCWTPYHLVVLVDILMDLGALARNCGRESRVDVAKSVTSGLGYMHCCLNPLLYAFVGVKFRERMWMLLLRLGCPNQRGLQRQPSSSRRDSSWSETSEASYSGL
# Assay: CXCR3/IP-10 radioligand binding (125I-IP-10 competition on CXCR3.L1/2 cell membranes)
# Details: test compound 10 μmol/L; 125I-labeled IP-10 binding to CXCR3.L1/2 transfectant cell membranes; results Table 5
# Excerpt: The activity of the compounds of the present invention can be assessed using a suitable assay, such as a receptor binding assay, a chemotaxis assay, an extracellular acidification assay or a calcium flux assay (see, for example, Hesselgesser et al., J. Biol. Chem., 273(25): 15687-15692 (1998) and WO 98/02151). For example, as described herein, small organic molecule antagonists of CXCR3/IP-10 binding have been identified utilizing cells engineered to express recombinant human CXCR3 (CXCR3.L1/2) and which bind ^125I-IP-10 and chemotax in response to IP-10, Mig, or I-TAC. Specifically, a high through-put receptor binding assay, which monitors ^125I-IP-10 biding to CXCR3.L1/2 cell membranes, was used to identify small molecule antagonists. Binding assays can be performed using other ligands of CXCR3, such as, Mig, and/or I-TAC.
# CXCR3/IP-10 Radioligand Binding:
# CXCR3.L1/2 Membrane Preparation:
# CXCR3.L1/2 cells were pelleted by centrifugation and stored at −80° C. The cells were lysed by thawing and resuspending at about 1.5×10^7 cells/mL in a hypotonic buffer (5 mmol/L HEPES (pH 7.2), 2 mmol/L EDTA, 10 μg/mL each leupeptin, aprotinin, and chymostatin, and 100 μg/mL PMSF (all from Sigma, St. Louis)). Nuclei and cellular debris are removed by centrifugation ([…], at 4° C.) for 10 min. The supernatant was transferred to chilled centrifuge tubes (Nalge, Rochester, N.Y.) and the membrane fraction was recovered by centrifugation (25,000 g at 4° C.) for 45 min. The membrane pellet was resuspended in freezing buffer (10 mmol/L HEPES (pH 7.2), 300 mmol/L Sucrose, 5 μg/mL each of leupeptin, aprotinin, and chymostatin, and 10 μg/mL PMSF). The total protein concentration was determined using a coomassie blue staining protein concentration assay kit (BioRad). The membrane preparations are aliquoted and stored at −80° C. until time of use.
# CXCR3/IP-10 binding was performed in 96-well polypropylene plates (Costar) in a final volume of 0.1 mL of HBB buffer (50 mmol/L Hepes pH 7.4, 1 mmol/L CaCl2, 5 mmol/L MgCl2, 0.02% sodium azide, 0.5% BSA (bovine serum albumin)), containing 1 to 5 μg CXCR3.L1/2 transfectant cell membrane protein and 0.05 to 0.2 nmol/L of ^125I-labeled IP-10 (NEN, Boston, Mass.). Competition binding experiments were performed by including variable concentrations of unlabeled IP-10 or test compound. Nonspecific binding was determined following the addition of a 250 nmol/L unlabelled IP-10. Samples were incubated for 60 min at room temperature, and bound and free tracer (^125I-labeled IP-10) were separated by filtration through 96-well GF/B filterplates presoaked in 0.3% polyethyleneimine. The filters were washed in HBB further supplemented with 0.5 mol/L NaCl, dried, and the amount of bound radioactivity determined by liquid scintillation counting. The competition is presented as the percent specific binding as calculated by 100×[(S−B)/(T−B)], where S is the radioactivity bound for each sample, B is background binding, and T is total bound in the absence of competitors. Duplicates were used throughout the experiments.
row,inhibition at 10 µM,Compound
1,84%,"Cc1cc(C)cc(CN2CCN(CCC(=O)N(CC(N)=O)c3cccc(CN4CCCCC4)c3)C2=C(C#N)C#N)c1 [Compound 12, N-Aminocarbonylmethyl-N-[3-(piperidinomethyl)phenyl]-3-[3-(3,5-dimethylbenzyl)-2-dicyanomethylideneimidazolidin-1-yl]propionamide]"
2,67%,"Cc1cc(C)cc(CN2CCN(CCC(=O)N(Cc3nnn[nH]3)c3cccc(CN4CCCCC4)c3)C2=C(C#N)C#N)c1 [Compound 13, N-(1H-tetrazol-5-ylmethyl)-N-[3-(piperidinomethyl)phenyl]-3-[3-(3,5-dimethylbenzyl)-2-dicyanomethylideneimidazolidin-1-yl]propionamide]"

# Continued, molecule first:
row,Compound,inhibition at 10 µM
1,"Cc1cc(C)cc(CN2CCN(CCC(=O)N(CCCF)c3cccc(CN4CCCCC4)c3)C2=C(C#N)C#N)c1 [Compound 11, N-(3-Fluoropropyl)-N-[3-(piperidinomethyl)phenyl]-3-[3-(3,5-dimethylbenzyl)-2-dicyanomethylideneimidazolidin-1-yl]propionamide]",95%
2,"CCOC(=O)CN(C(=O)CCN1CCN(Cc2cc(C)cc(C)c2)C1=C(C#N)C#N)c1cccc(CN2CCCCC2)c1 [Compound 8, N-Ethoxycarbonylmethyl-N-[3-(piperidinomethyl)phenyl]-3-[3-(3,5-dimethylbenzyl)-2-dicyanomethylideneimidazolidin-1-yl]propionamide]",95%
3,"Cc1cc(C)cc(CN2CCN(CCC(=O)N(c3cccc(CN4CCCCC4)c3)C3CCCCC3)C2=C(C#N)C#N)c1 [Compound 4, N-Cyclohexyl-N-[3-(piperidinomethyl)phenyl]-3-[3-(3,5-dimethylbenzyl)-2-dicyanomethylideneimidazolidin-1-yl]propionamide]",109%
4,"CCCN(C(=O)CCN1CCN(Cc2cc(C)cc(C)c2)C1=C(C#N)C#N)c1cccc(CN2CCCCC2)c1 [Compound 2, N-Propyl-N-[3-(piperidinomethyl)phenyl]-3-[3-(3,5-dimethylbenzyl)-2-dicyanomethylideneimidazolidin-1-yl]propionamide]",99%
5,"Cc1cc(C)cc(CN2CCN(CCC(=O)N(C)c3cccc(CN4CCCCC4)c3)C2=C(C#N)C#N)c1 [Compound 1, N-Methyl-N-[3-(piperidinomethyl)phenyl]-3-[3-(3,5-dimethylbenzyl)-2-dicyanomethylideneimidazolidin-1-yl]propionamide]",92%
6,"CC(=O)OCCN(C(=O)CCN1CCN(Cc2cc(C)cc(C)c2)C1=C(C#N)C#N)c1cccc(CN2CCCCC2)c1 [Compound 6, N-(2-Acetoxyethyl)-N-[3-(piperidinomethyl)phenyl]-3-[3-(3,5-dimethylbenzyl)-2-dicyanomethylideneimidazolidin-1-yl]propionamide]",93%
7,"Cc1cc(C)cc(CN2CCN(CCC(=O)N(CCO)c3cccc(CN4CCCCC4)c3)C2=C(C#N)C#N)c1 [Compound 7, N-(2-Hydroxyethyl)-N-[3-(piperidinomethyl)phenyl]-3-[3-(3,5-dimethylbenzyl)-2-dicyanomethylideneimidazolidin-1-yl]propionamide]",83%
8,"Cc1cc(C)cc(CN2CCN(CCC(=O)N(c3cccc(CN4CCCCC4)c3)C(C)C)C2=C(C#N)C#N)c1 [Compound 3, N-Isopropyl-N-[3-(piperidinomethyl)phenyl]-3-[3-(3,5-dimethylbenzyl)-2-dicyanomethylideneimidazolidin-1-yl]propionamide]",106%

# Same assay, conditions: test compound 10 μmol/L; 125I-labeled IP-10 binding to CXCR3.L1/2 transfectant cell membranes; results Table 6
inhibition at 10 µM,Compound,% inhibition at 10 μmol/L
93%,"Cc1cc(C)cc(CN2CCN(CCC(=O)N(c3cccc(CN(CCO)CCO)c3)C(C)C)C2=C(C#N)C#N)c1 [Compound 26, N-Isopropyl-N-[3-(bis(2-hydroxyethyl)aminomethyl)phenyl]-3-[3-(3,5-dimethylbenzyl)-2-dicyanomethylideneimidazolidin-1-yl]propionamide]",
107%,"CCOC(=O)C1CCN(Cc2cccc(N(C(=O)CCN3CCN(Cc4cc(C)cc(C)c4)C3=C(C#N)C#N)C(C)C)c2)CC1 [Compound 25, N-Isopropyl-N-[3-(4-ethoxycarbonylpiperidinomethyl)phenyl]-3-[3-(3,5-dimethylbenzyl)-2-dicyanomethylideneimidazolidin-1-yl]propionamide]",
95%,"CC(C)N(C(=O)CCN1CCN(C2Cc3cccc4cccc2c34)C1=C(C#N)C#N)c1cccc(CN2CCCCC2)c1 (stereo not drawn) [Compound 15, N-Isopropyl-N-[3-(piperidinomethyl)phenyl]-3-[3-(1-acenaphthenyl)-2-dicyanomethylideneimidazolidin-1-yl]propionamide]",
92%,"Cc1cc(C)cc(CN2CCN(CCC(=O)N(c3cccc(CN(C)CCO)c3)C(C)C)C2=C(C#N)C#N)c1 [Compound 27, N-Isopropyl-N-[3-[(N-(2-hydroxyethyl)-N-methylamino)methyl]phenyl]-3-[3-(3,5-dimethylbenzyl)-2-dicyanomethylideneimidazolidin-1-yl]propionamide]",
90%,"CCN(CC)Cc1cccc(N(C(=O)CCN2CCN(Cc3cc(C)cc(C)c3)C2=C(C#N)C#N)C(C)C)c1 [Compound 24, N-Isopropyl-N-[3-(diethylaminomethyl)phenyl]-3-[3-(3,5-dimethylbenzyl)-2-dicyanomethylideneimidazolidin-1-yl]propionamide]",
93%,"Cc1cc(C)cc(CN2CCN(CCC(=O)N(c3cccc(CN4CCOCC4)c3)C(C)C)C2=C(C#N)C#N)c1 [Compound 22, N-Isopropyl-N-[3-(morpholinomethyl)phenyl]-3-[3-(3,5-dimethylbenzyl)-2-dicyanomethylideneimidazolidin-1-yl]propionamide]",
105%,"Cc1cccc(CN2CCN(CCC(=O)N(c3cccc(CN4CCCCC4)c3)C(C)C)C2=C(C#N)C#N)c1C [Compound 14, N-Isopropyl-N-[3-(piperidinomethyl)phenyl]-3-[3-(2,3-dimethylbenzyl)-2-dicyanomethylideneimidazolidin-1-yl]propionamide]",

# Second part, the molecule before the results:
Compound,inhibition at 10 µM,% inhibition at 10 μmol/L
"Cc1cc(C)cc(CN2CCN(CCC(=O)N(c3cccc(CN4CCN(C)CC4)c3)C(C)C)C2=C(C#N)C#N)c1 [Compound 23, N-Isopropyl-N-[3-(4-methyl-1-piperazinylmethyl)phenyl]-3-[3-(3,5-dimethylbenzyl)-2-dicyanomethylideneimidazolidin-1-yl]propionamide]",,92%
"CCCN(C(=O)CCN1CCN(Cc2cc(Cl)cc(Cl)c2)C1=C(C#N)C#N)c1cc(CN2CCCCC2)ccc1C [Compound 18, N-Propyl-N-[2-methyl-5-(piperidinomethyl)phenyl]-3-[3-(3,5-dichlorobenzyl)-2-dicyanomethylideneimidazolidin-1-yl]propionamide]",94%,
"CCCN(C(=O)CCN1CCN(Cc2cc(Cl)cc(Cl)c2)C1=C(C#N)C#N)c1cc(CN2CCCCC2)ccc1Cl [Compound 19, N-Propyl-N-[2-chloro-5-(piperidinomethyl)phenyl]-3-[3-(3,5-dichlorobenzyl)-2-dicyanomethylideneimidazolidin-1-yl]propionamide]",101%,
"CC(C)N(C(=O)CCN1CCN(Cc2cc(Cl)cc(Cl)c2)C1=C(C#N)C#N)c1cccc(CN2CCCCC2)c1 [Compound 17, N-Isopropyl-N-[3-(piperidinomethyl)phenyl]-3-[3-(3,5-dichlorobenzyl)-2-dicyanomethylideneimidazolidin-1-yl]propionamide]",93%,
